Patent US20150037399A1, “NOVEL USE OF PIPOXOLAN AND ITS PHARMACEUTICAL COMPOSITION” (China Medical University, priority 2013, published 2015)

Columns and labels:
[1] = test system: MMP-9; test: Western blot of MMP-9 in PDGF-BB-stimulated VSMCs; type: cell-based; conditions: Rattus norvegicus, VSMC, read-out: inhibition of MMP-9 level
Description: (§1) The role of matrix metalloproteinase-2/9 (MMP-2/9) and the Ras/MEK/ERK signaling pathways were used to evaluate the effect of pipoxolan on VSMCs migration. The protein expression levels were determined by Western blot analysis. Each vertical bars represented mean±S.E. **p<0.01 and ***p<0.001 compared with control group (n=6 in each group).

[2] = test system: cerebral infarction area in the brain of ischemic rats; test: Transient focal cerebral ischemia-reperfusion model, infarct area (TTC staining); type: in vivo, Sprague-Dawley (SD) rats; conditions: 24 hr after reperfusion, vs control group
Description: Animals are male Sprague-Dawley (SD) rats, weighing 225-275 g and male ICR mice, weighing 25-30 g were purchased from BioLASCO Co. Ltd. (Taipei, Taiwan). All animals were fed regular chow and housed in standard cages at a constant temperature of 22±1° C. and relative humidity of 55±5% with 12 hr inverted light-dark cycle for 1 week prior to the experiments. Surgery was performed under zoletil® anesthesia. Five to six animals were used to obtain consistent data in each group. Pipoxolan was dissolved in dimethylsulfoxide (DMSO) and diluted in tissue culture medium before use. Focal ischemia was induced by occlusion of both common carotid arteries (CCA) and the right middle cerebral artery (MCA). Eighteen rats were randomly assigned to 3 treatment groups, six rats for each group. Group 1 rats were treated with saline and groups 2 and 3 treated with pipoxolan (10 mg/kg and 30 mg/kg, respectively). Rats were fasted overnight with free access to water. […] After 24 hr, all rats were alive and neurobehavioral deficits evaluation and infarct assessment were performed Twenty four hours following reperfusion, neurological function of rats was assessed. […] The image of each section was digitized and the infarct area was determined morphometrically using Image-Pro Plus 6.0 (Media Cybernetics, Md., USA).

[3] = test system: Ras; test: Western blot of Ras in PDGF-BB-stimulated VSMCs; type: cell-based
Description: as §1

[4] = test system: cleaved caspase-3 positive cells; test: Immunohistochemical staining of cleaved caspase-3 in rat brain slices; type: in vivo, Sprague-Dawley (SD) rats; conditions: rat cortex
Description: Nine rats were randomly assigned into 3 treatment groups, three rats for each group. Group 1 rats were treated with saline and groups 2 and 3 treated with pipoxolan (10 mg/kg and 30 mg/kg, respectively). Focal ischemia was induced by occlusion of both CCA and the right MCA as previously described. Twenty four hours after focal ischemia, rats were deeply anesthetized by intraperitoneal injection of 50 mg/kg of zoletil® followed by intracardiac perfusion with 200 ml of 0.9% saline, followed by 4% paraformaldehyde in 0.1 M PBS and animals were decapitated. The percentage of positive TUNEL staining cells within areas of the cortex was estimated. Rat brain slices were incubated with anti-caspase-3 antibodies (GTX73093, GeneTex Inc., USA) overnight and immunohistochemical labeled using a NovoLink Polymer Detection System Kit (Leica Microsystems Inc., Newcastle Upon Tyne, UK). The percentage of positive caspase-3 staining cells within the cortex was estimated based on the average number of cells in a defined area.

[5] = test system: PDGF-BB-induced migration of A7r5 cells (VSMCs); test: Transwell migration assay; type: cell-based; conditions: PDGF-BB 30 ng/ml 48 hr, vs PDGF-BB control, read-out: percent inhibition of cell migration across the membrane
Description: The VSMCs cell line A7r5 was purchased from Bioresource Collection and Research Center (Hsinchu, Taiwan). A7r5 cells were plated onto 6-well plates in DMEM, supplemented with 10% FBS, 100 units/ml penicillin, 100 μg/ml streptomycin and 2 mM L-glutamine and grown at 37° C. under a humidified 5% CO2 and 95% air at one atmosphere. Effects of pipoxolan on VSMCs migration were further investigated by a transwell migration chamber with a collagen-coated polycarbonate filter. A7r5 cells (2×10^5 cells) were seeded on a transwell apparatus (a 6.5-mm polyethylene terephthalate membrane with 8-μm pores) and treated with pipoxolan (0, 5, 10 and 15 μM) in the presence of PDGF-BB (30 ng/ml) for 48 hr. The cells were then trypsinized, resuspended in 0.5% FBS medium. FBS/DMEM (10%) was added to the bottom chamber of each well as the chemoattractant. Cells were allowed to migrate for 8 hr through the membrane to the underside of the apparatus. Cells were then fixed with methanol for 10 min and stained with Giemsa solution for 30 min. The cells migrating to the lower outside of the insert membrane were counted manually using a microscope and the NIS-Elements software.

Cl.O=C1OC(CCN2CCCCC2)OC1(c1ccccc1)c1ccccc1 (stereo not shown) [pipoxolan, 5,5-diphenyl-2-(2-piperidin-1-ylethyl)-1,3-dioxolan-4-one hydrochloride]
inhibition at 5 µM ([1]; 5 μM): 39.4% | inhibition at 10 µM ([1]; 10 μM): 45.4% | inhibition at 15 µM ([1]; 15 μM): 36.6% | percent reduction of cerebral infarction ([2]; 10 mg/kg p.o. 1 hr prior to ischemia): 43.18% | percent reduction of cerebral infarction ([2]; 30 mg/kg p.o. 1 hr prior to ischemia): 73.43% | reduction of Ras protein level ([3]; 5 μM): 21% | reduction of Ras protein level ([3]; 10 μM): 24.75% | reduction of Ras protein level ([3]; 15 μM): 24% | reduction of cleaved caspase 3 positive cells ([4]; 10 mg/kg): 37.18% | reduction of cleaved caspase 3 positive cells ([4]; 30 mg/kg): 63.44% | inhibition at 5 µM ([5]; 5 μM): 46.2% | inhibition at 10 µM ([5]; 10 μM): 62.2% | inhibition at 15 µM ([5]; 15 μM): 76.5%
